ChEMBL document CHEMBL5465560, “Selectivity Literature for EUbOPEN Chemogenomic Library” (2024)
Numbering of substitutions follows the chain as printed.

Columns and labels:
[1] = target: Death-associated protein kinase 3 (Homo sapiens) (UniProt O43293); assay: Selectivity interaction (Kinase panel (DSF assay)) EUB0001558a DAPK3
[2] = system: Receptor-type tyrosine-protein kinase FLT3 (Homo sapiens), P36888 [UNDEFINED MUTATION]; assay: (§1) Selectivity interaction (KinomeScan (DiscoverX)) EUB0001079a FLT3; conditions: at 1 µM
[3] = system: T1, Receptor-type tyrosine-protein kinase FLT3 (Homo sapiens), P36888 [N841I]; assay: as §1; conditions: at 1 µM
T1 sequence (whole entry): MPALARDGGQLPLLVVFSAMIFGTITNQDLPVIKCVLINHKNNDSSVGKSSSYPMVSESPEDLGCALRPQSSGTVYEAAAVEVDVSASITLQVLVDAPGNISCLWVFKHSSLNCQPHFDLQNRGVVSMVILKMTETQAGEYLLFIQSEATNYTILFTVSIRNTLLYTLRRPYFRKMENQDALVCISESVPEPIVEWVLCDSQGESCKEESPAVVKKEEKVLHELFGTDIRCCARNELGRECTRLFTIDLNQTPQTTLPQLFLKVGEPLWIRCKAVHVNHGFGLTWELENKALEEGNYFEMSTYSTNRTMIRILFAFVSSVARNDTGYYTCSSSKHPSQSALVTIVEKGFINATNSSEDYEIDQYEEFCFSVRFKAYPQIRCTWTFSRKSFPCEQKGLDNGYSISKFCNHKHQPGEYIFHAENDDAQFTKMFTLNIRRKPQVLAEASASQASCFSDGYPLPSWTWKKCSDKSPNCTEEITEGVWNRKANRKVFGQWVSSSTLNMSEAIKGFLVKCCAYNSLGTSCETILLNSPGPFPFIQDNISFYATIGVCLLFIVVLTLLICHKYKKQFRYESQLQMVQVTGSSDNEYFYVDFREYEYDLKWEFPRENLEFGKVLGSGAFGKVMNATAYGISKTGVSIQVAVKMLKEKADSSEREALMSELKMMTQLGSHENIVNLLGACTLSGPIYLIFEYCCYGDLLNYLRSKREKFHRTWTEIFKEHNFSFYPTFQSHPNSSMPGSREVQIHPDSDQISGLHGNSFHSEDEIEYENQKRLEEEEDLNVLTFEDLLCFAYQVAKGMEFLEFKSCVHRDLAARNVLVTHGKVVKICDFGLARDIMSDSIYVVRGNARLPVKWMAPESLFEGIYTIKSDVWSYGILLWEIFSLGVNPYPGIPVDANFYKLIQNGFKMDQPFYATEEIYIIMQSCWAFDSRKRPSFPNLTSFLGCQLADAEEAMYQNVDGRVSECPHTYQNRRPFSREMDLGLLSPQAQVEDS

[4] = system: T2, Receptor-type tyrosine-protein kinase FLT3 (Homo sapiens), P36888 [K663Q]; assay: as §1; conditions: at 1 µM
T2 sequence (whole entry): T1 sequence (whole entry) with K663Q, I841N

[5] = target: T3, Dual specificity tyrosine-phosphorylation-regulated kinase 3 (Homo sapiens) (UniProt O43781); assay: Selectivity interaction (Kinase panel (Z-LYTE Assay)) EUB0001632a DYRK3; conditions: at 10 µM
T3 sequence (whole entry): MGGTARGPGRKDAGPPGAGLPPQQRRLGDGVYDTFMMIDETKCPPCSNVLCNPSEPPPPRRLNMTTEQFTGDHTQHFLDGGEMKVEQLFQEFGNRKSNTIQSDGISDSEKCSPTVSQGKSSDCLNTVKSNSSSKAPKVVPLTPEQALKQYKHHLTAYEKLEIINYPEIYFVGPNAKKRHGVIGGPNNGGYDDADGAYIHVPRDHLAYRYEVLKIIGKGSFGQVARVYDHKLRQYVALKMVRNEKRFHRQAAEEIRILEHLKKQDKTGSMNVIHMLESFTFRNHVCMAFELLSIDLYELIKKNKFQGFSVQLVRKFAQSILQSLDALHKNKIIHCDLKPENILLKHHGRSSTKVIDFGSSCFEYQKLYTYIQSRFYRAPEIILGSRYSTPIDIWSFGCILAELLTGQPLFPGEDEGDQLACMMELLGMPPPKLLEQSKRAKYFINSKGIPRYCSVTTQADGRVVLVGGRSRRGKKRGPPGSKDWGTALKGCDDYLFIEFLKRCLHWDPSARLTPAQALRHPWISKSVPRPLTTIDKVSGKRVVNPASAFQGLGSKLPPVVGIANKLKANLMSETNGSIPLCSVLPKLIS

[6] = target: Casein kinase I isoform delta (Homo sapiens, UniProt P48730); assay: Selectivity interaction (SelectScreen profiling (Invitrogen)) EUB0000607a CSNK1D; conditions: at 2 µM
Sequence of Casein kinase I isoform delta (P48730 whole entry, looked up, canonical isoform): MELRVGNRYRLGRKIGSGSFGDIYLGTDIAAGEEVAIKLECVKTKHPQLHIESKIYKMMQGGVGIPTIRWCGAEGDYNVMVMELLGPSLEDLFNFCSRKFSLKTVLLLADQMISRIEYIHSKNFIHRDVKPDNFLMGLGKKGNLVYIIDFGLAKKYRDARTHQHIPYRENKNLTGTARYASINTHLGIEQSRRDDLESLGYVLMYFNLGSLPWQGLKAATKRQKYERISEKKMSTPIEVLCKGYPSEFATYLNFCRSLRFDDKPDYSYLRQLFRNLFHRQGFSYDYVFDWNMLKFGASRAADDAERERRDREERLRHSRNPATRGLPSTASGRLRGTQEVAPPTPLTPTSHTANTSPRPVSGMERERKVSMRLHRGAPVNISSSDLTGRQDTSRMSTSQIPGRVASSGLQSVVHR

[7] = target: Homeodomain-interacting protein kinase 2 (Homo sapiens, UniProt Q9H2X6); assay: Selectivity interaction (Ambit KINOMEscan and KiNATiv profiling in Jurkat cells) EUB0000090b HIPK2; type: cell-based; conditions: at 1 µM
Sequence of Homeodomain-interacting protein kinase 2 (Q9H2X6 whole entry, looked up): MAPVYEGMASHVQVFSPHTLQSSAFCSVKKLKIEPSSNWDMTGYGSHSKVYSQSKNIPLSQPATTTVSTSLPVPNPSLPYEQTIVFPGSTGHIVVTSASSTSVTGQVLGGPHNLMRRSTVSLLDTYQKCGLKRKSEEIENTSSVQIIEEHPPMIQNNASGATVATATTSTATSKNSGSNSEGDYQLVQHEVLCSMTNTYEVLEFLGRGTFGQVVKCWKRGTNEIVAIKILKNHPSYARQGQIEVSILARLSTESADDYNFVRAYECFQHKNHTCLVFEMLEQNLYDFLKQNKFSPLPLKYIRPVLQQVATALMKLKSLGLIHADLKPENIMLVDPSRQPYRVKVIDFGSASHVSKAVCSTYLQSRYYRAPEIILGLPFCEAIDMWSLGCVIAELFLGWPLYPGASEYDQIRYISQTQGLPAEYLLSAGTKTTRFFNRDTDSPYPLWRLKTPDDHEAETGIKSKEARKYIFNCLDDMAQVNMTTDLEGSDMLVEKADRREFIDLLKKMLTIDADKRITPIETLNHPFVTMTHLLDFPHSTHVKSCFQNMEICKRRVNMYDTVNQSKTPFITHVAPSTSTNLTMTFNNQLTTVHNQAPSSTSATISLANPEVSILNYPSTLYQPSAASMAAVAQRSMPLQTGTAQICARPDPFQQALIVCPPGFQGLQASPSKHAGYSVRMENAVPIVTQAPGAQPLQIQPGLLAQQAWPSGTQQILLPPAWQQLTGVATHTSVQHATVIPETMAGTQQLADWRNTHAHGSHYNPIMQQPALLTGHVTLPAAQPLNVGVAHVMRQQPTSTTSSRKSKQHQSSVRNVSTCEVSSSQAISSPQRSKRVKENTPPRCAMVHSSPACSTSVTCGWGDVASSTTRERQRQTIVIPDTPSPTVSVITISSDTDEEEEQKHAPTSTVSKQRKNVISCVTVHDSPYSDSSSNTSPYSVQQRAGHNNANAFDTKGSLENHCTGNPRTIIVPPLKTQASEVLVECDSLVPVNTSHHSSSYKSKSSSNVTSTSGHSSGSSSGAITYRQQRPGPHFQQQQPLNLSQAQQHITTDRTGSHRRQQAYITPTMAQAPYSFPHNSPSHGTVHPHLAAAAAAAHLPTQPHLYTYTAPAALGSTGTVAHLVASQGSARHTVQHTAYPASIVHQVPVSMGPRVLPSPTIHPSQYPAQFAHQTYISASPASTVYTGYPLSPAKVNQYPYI

Sequence of Death-associated protein kinase 3 (Homo sapiens) (O43293 whole entry, looked up): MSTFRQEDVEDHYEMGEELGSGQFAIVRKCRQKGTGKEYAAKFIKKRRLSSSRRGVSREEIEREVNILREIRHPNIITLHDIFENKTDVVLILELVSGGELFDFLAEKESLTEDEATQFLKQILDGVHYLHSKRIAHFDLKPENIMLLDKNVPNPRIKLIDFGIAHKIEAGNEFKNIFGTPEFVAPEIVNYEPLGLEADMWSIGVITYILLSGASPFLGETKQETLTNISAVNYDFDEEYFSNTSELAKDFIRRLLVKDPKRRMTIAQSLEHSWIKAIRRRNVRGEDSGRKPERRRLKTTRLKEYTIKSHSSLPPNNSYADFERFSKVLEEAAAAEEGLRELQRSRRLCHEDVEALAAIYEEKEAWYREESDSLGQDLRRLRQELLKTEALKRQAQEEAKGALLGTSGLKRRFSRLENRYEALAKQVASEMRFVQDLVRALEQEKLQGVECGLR

For `CC(C)(O)[C@H](F)CN1Cc2cc(NC(=O)c3cnn4cccnc34)c(N3CCOCC3)cc2C1=O`, the dTM [1] was 1.8 K.
For `Nc1cnc(N2CCc3cc(S(=O)(=O)Nc4c(F)cc(Cl)cc4F)cc(N4CCCC4=O)c32)nc1` [TP-020n], the % of control [2] was 92%, the % of control [3] was 89% and the % of control [4] was 97%.
Work on `Cn1cc(-n2cnc3c(NCc4nc5cc(Cl)c(Cl)cc5[nH]4)nc(N4CCOCC4)nc32)cn1` yielded a % of control [5] of 10.6%.
Compound `CNC(=O)Nc1ccc(-c2nc(N3CC4CCC(C3)O4)c3cnn(C4CCC5(CC4)OCCO5)c3n2)cc1` has a % of inhibition [6] of 2%.
With `CN(C)C/C=C/C(=O)Nc1ccc(C(=O)N2CCCC(Nc3ncc(Cl)c(-c4c[nH]c5ccccc45)n3)C2)cc1` (configuration not stated) the % of control [7] was 70%.
